Like-named read-outs stand apart in the source and are kept apart here.
Experiments:
M. hapla eggs = test: Meloidogyne hapla in vitro egg hatch assay; assay type: in vivo; conditions: 45 μM; for Number of Hatched Eggs: 8 days at room temperature, about 90 eggs per well, tested once; for Number of Hatched Eggs z-score: 8 days, z-score vs 8 untreated DMSO wells
Method: The M. hapla were originally obtained from a soil sample of muck soil from Ste-Clotilde, Quebec, Canada. Using tweezers, egg masses were carefully removed from root material from infested carrot roots. Eggs were liberated from the egg masses using a mild sodium hypochlorite bleaching protocol, whereby egg masses were bleached with a 10% commercial bleach (sodium hypochlorite) solution for 4 minutes with vigorous shaking, and then washed 5 times with deionized water. 50 μL of deionized water was added to each well of two 96-well polystyrene culture plates, and 0.5 μL of chemical (or DMSO alone) was added to each well. Approximately 90 eggs were added to each well in 49.5 ul of deionized water. The plates were sealed with parafilm and incubated for 8 days at room temperature without shaking in a Tupperware box filled with wet paper towels. After the 8-day incubation, the number of hatched eggs was counted for each treatment and for the untreated controls. Each chemical treatment was tested only once. 8 separate untreated DMSO controls were included in the experiment. The z-score for each treatment was calculated using the mean and standard deviation of the untreated DMSO control wells.

M. incognita J2 larvae = test: Meloidogyne incognita in vitro larval mobility assay; assay type: in vivo; conditions: 45 μM, 4 days; for Replicate 1 z-score / Replicate 2 z-score: z-score vs untreated DMSO wells; for pest or weed control at 45 µM: Meloidogyne incognita, 96 h
Method: M. incognita (Kofoid & White) Chitwood Race 1 (originally isolated in Maryland) was used for all experiments, and was maintained on pepper (Capsicum annuum L.) cv. PA-136 in a greenhouse as previously described^44. Infective J2 juveniles were collected as described in ref. 45. The microwell dose-response experiments were carried out similarly to previously described protocols^44,46. In brief, 50 μL of deionized water was added to the wells of 96-well polystyrene plates and 0.5 μL of test compound (or DMSO alone) was added to each well. Approximately 35 J2s were then added to each well in 49.5 μL of deionized water. The chemicals were tested at 45 μM, and the final concentration of DMSO in each well was 0.5% (v/v). DMSO alone was added to 3 separate wells. The plates were covered with plastic adhesive strips, and the lids of the plates were sealed with parafilm. The plates were incubated at 25° C. without shaking for 4 days. The percent of worms that were immobile (% immobile) was quantified by counting the number of immobile worms after 4 days of incubation, dividing the number of immobile worms by the total number of worms in the well, and then multiplying by 100. Two replicates were performed for each treatment. The z-score for each treatment was calculated using the mean and standard deviation of the untreated DMSO control wells. The average % immobile value was calculated across the two replicates. A test compound was considered most promising if the z-score was greater than 1.645 in both replicates.

[1] = replicate 1, read-out: Replicate 1 % Immobile
[2] = replicate 2, read-out: Replicate 2 % Immobile
[3] = average of the two replicates, read-out: Average % Immobile

Structure (SMILES)	Number of Hatched Eggs (M. hapla eggs)	Number of Hatched Eggs z-score (M. hapla eggs)	Replicate 1 z-score (M. incognita J2 larvae; replicate 1)	Replicate 2 z-score (M. incognita J2 larvae; replicate 2)	pest or weed control at 45 µM (M. incognita J2 larvae; [1])	pest or weed control at 45 µM (M. incognita J2 larvae; [2])	pest or weed control at 45 µM (M. incognita J2 larvae; [3])	Number of Hatched Eggs (M. hapla eggs; listed as 1-161)
c1ccc2cc(-c3cn4ccsc4n3)ccc2c1 [I-101]	2	[3.97]						
COCc1nn2cc(-c3cccc(OC)c3)nc2s1 [I-108]	4	[3.31]						
COCc1nn2cc(-c3ccc(C)c(C)c3)nc2s1 [I-109]	4	[3.31]						
Fc1ccc(-c2cn3nc(Br)sc3n2)cc1 [I-113]			[15.80]	[15.32]	100%	94.4%		
c1ccc(-c2nc3sccn3n2)cc1 [I-116]	2	[3.97]	[4.40]	[2.43]	44.2%	23.2%	33.7%	
Nc1c(-c2ccc(Br)cc2)nc2sccn12 [I-118]	2	[3.97]						
O=Cc1c(-c2ccccc2)nc2sccn12 [I-122]	1	[4.30]	[14.96]	[12.31]	95.9%	77.8%	≥ 75%	
Nc1c(-c2ccccc2)nc2sccn12 [I-128]			[11.92]	[13.69]	81%	85.5%	≥ 75%	
CCc1nn2cc(-c3ccc(C)cc3C)nc2s1 [I-129]			[2.18]	[1.78]	33.3%	19.6%	26.5%	
Cc1cn2cc(-c3ccc(N)cc3)nc2s1 [I-132]	3	[3.64]						
COc1ccc(-c2nc3scc(C)n3c2C=O)cc1 [I-135]	4	[3.31]						
COCc1nn2cc(-c3ccc(F)cc3)nc2s1 [I-141]			[1.89]	[4.06]	31.9%	32.2%	32.1%	
COc1ccc(-c2cn3ccsc3n2)cc1 [I-142]			[2.76]	[1.68]	36.2%	19.1%	27.6%	
COCc1nn2cc(-c3ccc(Cl)cc3)nc2s1 [I-144]	4	[3.31]	[4.17]	[6.85]	43.1%	47.6%	45.4%	
Cc1ccc(-c2nc3sccn3c2C=O)cc1 [I-152]			[15.80]	[14.75]	100%	91.3%		
CCOc1ccc(-c2cn3ccsc3n2)cc1 [I-153]	2	[3.97]						
O=Cc1c(-c2ccc(F)cc2)nc2sccn12 [I-157]			[15.40]	[15.24]	98%	94%		
Cc1nn2cc(-c3ccc(Cl)cc3)nc2s1 [I-158]			[3.12]	[8.51]	37.9%	56.8%	47.4%	
Brc1nn2cc(-c3ccccc3)nc2s1 [I-159]			[15.34]	[16.33]	97.8%	100%		
Cc1csc(-c2cn3cc(C)sc3n2)c1 [I-161]	0	[4.63]						completely inhibited egg hatching

Reference: patent publication US20240109914A1, “IMIDAZOTHIAZOLE COMPOUNDS AND ANALOGS THEREOF AND METHODS FOR TREATING NEMATODE INFECTIONS IN PLANTS” (The Governing Council of The University of Toronto, priority 2021, published 2024)
